≈ marks a conversion by molar mass, not a printed value.
System: Staphylococcus aureus
Assay: Bactericidal activity against Staphylococcus aureus clinical isolate 8 after 24 hr
Format: functional
Conditions: isolate 8, 24 h

CO/N=C/CC(=O)c1ccc(OC)cc1
MBC: 32 µg/mL (≈ 154 µM)

— ChEMBL document CHEMBL3045868, “Synthesis and antibacterial activities of para-alkoxy phenyl--ketoaldehyde derivatives” (Med Chem Res, 2013)
